From ChEMBL document CHEMBL1130555, “Synthesis and biological activity of novel 3-trifluoromethyl taxoids” (Bioorg Med Chem Lett, 1997)

Columns and labels:
Format in all cases: functional, cell-based
[1] = system: A549; test: Cytotoxicity was evaluated against A549 non-small cell lung carcinoma human cancer cell line
[2] = system: HT-29; test: Cytotoxicity was evaluated against HT-29 colon carcinoma human cancer cell line
[3] = system: MCF7R; test: Cytotoxicity was evaluated against MCF7-R (mammary carcinoma 180-fold resistant to doxorubicin, expressing MDR phenotype) human breast cancer cell line
[4] = system: MCF7; test: Cytotoxicity was evaluated against MCF-7 mammary carcinoma human breast cancer cell line
[5] = system: A121; test: Cytotoxicity was evaluated against A121 ovarian carcinoma human cancer cell line

Row | Compound | IC50 [1] [nM] | IC50 [2] [nM] | IC50 [3] [nM] | IC50 [4] [nM] | IC50 [5] [nM]
1 | CC(=O)O[C@@]12CO[C@@H]1C[C@H](O)[C@@]1(C)C(=O)[C@H](OC(=O)N(C)C)C3=C(C)[C@@H](OC(=O)[C@H](O)[C@@H](NC(=O)OC(C)(C)C)C(F)(F)F)C[C@@](O)([C@@H](OC(=O)c4ccccc4)[C@H]21)C3(C)C | 0.2 | 0.4 | 17 | 0.6 | 0.3
2 | CCCCC(=O)O[C@H]1C(=O)[C@@]2(C)[C@H]([C@H](OC(=O)c3ccccc3)[C@]3(O)C[C@H](OC(=O)[C@H](O)[C@@H](NC(=O)OC(C)(C)C)C(F)(F)F)C(C)=C1C3(C)C)[C@]1(OC(C)=O)CO[C@@H]1C[C@@H]2O | 0.8 | 1.4 | 26 | 0.7 | 0.7
3 | CC(=O)O[C@@]12CO[C@@H]1C[C@H](O)[C@@]1(C)C(=O)[C@H](OC(=O)CC(C)(C)C)C3=C(C)[C@@H](OC(=O)[C@H](O)[C@@H](NC(=O)OC(C)(C)C)C(F)(F)F)C[C@@](O)([C@@H](OC(=O)c4ccccc4)[C@H]21)C3(C)C | 0.5 | 0.6 | 12 | 0.5 | 0.5
4 | CC(=O)O[C@H]1C(=O)[C@@]2(C)[C@H]([C@H](OC(=O)c3ccccc3)[C@]3(O)C[C@H](OC(=O)[C@H](O)[C@@H](NC(=O)OC(C)(C)C)C(F)(F)F)C(C)=C1C3(C)C)[C@]1(OC(C)=O)CO[C@@H]1C[C@@H]2O | 0.2 | 0.4 | 156 | 0.6 | 0.3
5 | CC(=O)O[C@@]12CO[C@@H]1C[C@H](O)[C@@]1(C)C(=O)[C@H](OC(=O)C3CC3)C3=C(C)[C@@H](OC(=O)[C@H](O)[C@@H](NC(=O)OC(C)(C)C)C(F)(F)F)C[C@@](O)([C@@H](OC(=O)c4ccccc4)[C@H]21)C3(C)C | 0.4 | 0.5 | 16 | 0.5 | 0.4
6 | CC(=O)O[C@@]12CO[C@@H]1C[C@H](O)[C@@]1(C)C(=O)[C@H](O)C3=C(C)[C@@H](OC(=O)[C@H](O)[C@@H](NC(=O)OC(C)(C)C)C(F)(F)F)C[C@@](O)([C@@H](OC(=O)c4ccccc4)[C@H]21)C3(C)C | 0.44 | 0.65 | 156 | 0.44 | 1.15
7 | CC(=O)O[C@@]12CO[C@@H]1C[C@H](O)[C@@]1(C)C(=O)[C@H](OC(=O)N3CCOCC3)C3=C(C)[C@@H](OC(=O)[C@H](O)[C@@H](NC(=O)OC(C)(C)C)C(F)(F)F)C[C@@](O)([C@@H](OC(=O)c4ccccc4)[C@H]21)C3(C)C | 0.4 | 0.4 | 48 | 0.4 | 0.5
8 | CCC(=O)O[C@H]1C(=O)[C@@]2(C)[C@H]([C@H](OC(=O)c3ccccc3)[C@]3(O)C[C@H](OC(=O)[C@H](O)[C@@H](NC(=O)OC(C)(C)C)C(F)(F)F)C(C)=C1C3(C)C)[C@]1(OC(C)=O)CO[C@@H]1C[C@@H]2O | 0.3 | 0.4 | 14 | 0.3 | 0.3
9 | COC(=O)O[C@H]1C(=O)[C@@]2(C)[C@H]([C@H](OC(=O)c3ccccc3)[C@]3(O)C[C@H](OC(=O)[C@H](O)[C@@H](NC(=O)OC(C)(C)C)C(F)(F)F)C(C)=C1C3(C)C)[C@]1(OC(C)=O)CO[C@@H]1C[C@@H]2O | 0.2 | 0.4 | 21 | 0.4 | 0.3
